This is an account of results in patent publication US20240366729A1, “COMBINATION OF A NURR1 AGONIST WITH AT LEAST ONE OF AN ALDOSTERONE ANTAGONIST, AN INSULIN MODULATOR AND A SULFONYLUREA” (GENESIS PHARMA SA, priority 2021, published 2024).

Structures are written as SMILES. “Also recorded” adds a separate entry of the source.

The subject of data set [1] is rat model of transient middle cerebral artery occlusion (t-MCAO). The data set can be described thus: Neurological score (NSS), rat t-MCAO model, 7-day treatment (Example 2). The class given is in vivo. Conditions: for Neurological score (NSS) vs vehicle: Day 1 and Day 8. As to the method: The study was performed in cycles, each one containing at least nine rats. Test compounds were administrated 20 minutes before reperfusion and twice a day thereafter. On Day 1, stroke was induced by the t-MCAO procedure. Neurological score (NSS), was performed before surgery, 24 hours and 7 days after t-MCAO. At study termination brains were harvested, sliced into five 2 mm thick coronal sections and stained with TTC for infarct size measurement. The experimental design and timeline for the two parts of the study are presented below.
The right Common Carotid artery (CCA) was exposed through a midline neck incision and carefully dissected free from surrounding nerves and fascia—from its bifurcation to the base of the skull. The Occipital artery branches of the External Carotid artery (ECA) were isolated, and these branches were dissected and coagulated. The ECA was dissected further distally and coagulated along with the terminal lingual and maxillary artery branches, just before their bifurcation. The Internal Carotid artery (ICA) was isolated and carefully separated from the adjacent Vagus nerve, and the Pterygopalatine artery was ligated close to its origin with a 5-0 nylon suture. […] The surgical wound was closed and the animals were returned to their cages to recover from anesthesia. One hour and half after occlusion rats were re-anesthetized and monofilament was withdrawn to allow reperfusion. The surgical wound was closed and rats were returned to their cages. Following surgery, animals were placed on a heating pad until their recovery from the anesthesia. All animals received subcutaneous Meloxicam at 2 mg/kg before and after surgery, daily during the next two days. They were observed frequently on the day of t-MCAO surgery and at least once daily thereafter.
Treatment was start 20 minutes before reperfusion and then at the end of the same day, via IP administration of the test compounds. Treatment continued twice a day for six consecutive days thereafter.
Neuroscore was graded on a scale of 0 to 18 (in which normal score is 0 and maximal deficit score is represented by 18).

The subject of data set [2] is mouse model of intracerebral haemorrhage (ICH). Conditions: 40 mg/kg, cited from earlier work.
The test system of data set [3] is rat superior mesenteric arteries. To be noted: cited from earlier work.
For another data set, the target named is Nurr1 (Homo sapiens, UniProt P43354). To be noted: through physical interaction with its ligand binding domain (LBD); cited from earlier work.
Chain of Nurr1 (P43354 whole entry, species assumed, the tested form may be a part): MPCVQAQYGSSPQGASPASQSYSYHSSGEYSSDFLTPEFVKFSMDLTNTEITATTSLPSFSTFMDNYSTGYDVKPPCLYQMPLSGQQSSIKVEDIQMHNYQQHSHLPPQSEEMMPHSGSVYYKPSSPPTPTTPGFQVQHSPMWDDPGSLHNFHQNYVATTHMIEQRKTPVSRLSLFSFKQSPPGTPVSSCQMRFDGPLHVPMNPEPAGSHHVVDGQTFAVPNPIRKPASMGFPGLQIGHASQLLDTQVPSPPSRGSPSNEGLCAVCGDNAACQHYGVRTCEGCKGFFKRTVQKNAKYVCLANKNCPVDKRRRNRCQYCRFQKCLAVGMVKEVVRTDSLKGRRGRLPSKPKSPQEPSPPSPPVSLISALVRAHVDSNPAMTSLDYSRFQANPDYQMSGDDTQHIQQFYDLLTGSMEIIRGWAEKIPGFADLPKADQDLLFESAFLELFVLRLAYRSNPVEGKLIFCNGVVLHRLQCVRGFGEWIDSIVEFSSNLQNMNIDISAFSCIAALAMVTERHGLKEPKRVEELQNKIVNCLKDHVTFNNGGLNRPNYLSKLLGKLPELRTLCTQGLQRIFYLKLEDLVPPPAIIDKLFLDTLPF
Data set [4] relates to collagenase-induced intracerebral hemorrhage. Conditions: 10 μg/kg loading dose followed by 200 ng/h for up to 7 days; cited from earlier work.
Data set [5] has as its system patients with large hemispheric infarctions. Conditions: intravenous 0.13 mg bolus, 0.16 mg/h for 6 h, then 0.11 mg/h for 66 h; cited from earlier work.
The subject of data set [6] is rat thromboembolic model of stroke. Conditions: continuous infusion 75 ng/h; 7 days post middle cerebral artery occlusion; cited from earlier work.
Data set [7] deals with rodent models of subarachnoid hemorrhage. To be noted: loading dose 10 μg/kg intraperitoneally, then infusion 200 ng/hr for 24 hours or one week; cited from earlier work.
For data set [8], the system named is rodent models of brain ischemia and reperfusion injury. To be noted: 1 mg/kg administered 10 min before reperfusion; cited from earlier work.
Data set [9] has as its system experimental intracerebral hemorrhage in mice. Conditions: 10 μg either before or at 2 h after hemorrhage; cited from earlier work.
For data set [10], the system named is rat model of stroke (middle cerebral artery occlusion). Conditions: 10 μg/kg IP loading dose plus 200 ng/h subcutaneous infusion beginning 4.5 h or 10 h after onset of ischemia; cited from earlier work.
In data set [11] the test system is patients with acute hemispheric infarction. Conditions: oral administration; cited from earlier work.
For data set [12], the system named is rat model of transient middle cerebral artery occlusion (t-MCAO). The data set can be described thus: Brain infarct size (TTC staining, ImageJ), rat t-MCAO model, Example 2. To be noted: at termination; amodiaquine 0.5 mg/kg, potassium canrenoate 0.33 mg/kg, glibenclamide 1 μg/kg, exenatide 0.05 μg/kg; vehicle 38%. The class given is in vivo.

As for `CCN(CC)Cc1cc(Nc2ccnc3cc(Cl)ccc23)ccc1O` [Amodiaquine, 4-[(7-chloroquinolin-4-yl)amino]-2[(diethylamino)methyl]-phenol], the “Neurological score (NSS) vs vehicle” value in [1] (amodiaquine 0.5 mg/kg (Group 5M), 20 min before reperfusion and twice a day) is on record as “Statistically significant differences; also recorded: statistically significant NSS improvement”; in data set [1] (amodiaquine 7 mg/kg (Group 3M), 20 min before reperfusion and twice a day) it was “Statistically significant differences; also recorded: statistically significant NSS improvement”; in data set [1] (amodiaquine 20 mg/kg (Group 2M), 20 min before reperfusion and twice a day) it was “Statistically significant differences; also recorded: statistically significant NSS improvement”. Besides, in data set [1] (amodiaquine 0.5-20 mg/kg), the “Neurological score (NSS) vs vehicle, monotherapy at different doses” value is “improved significantly and dose dependently the neurological score”. The “Perihematomal activation of microglia/macrophages and astrocytes” value in [2] (i.p. daily from 3 h after ICH induction) is “diminished perihematomal activation of microglia/macrophages and astrocytes”. The “ICH-induced mRNA expression of IL-1β, CCL2 and CXCL2” value in [2] (i.p. daily) is “suppressed ICH-induced mRNA expression of IL-1β, CCL2 and CXCL2”. Further, the Motor dysfunction result in data set [2] (i.p. daily) is on record as “ameliorated motor dysfunction”. Besides, in data set [3], the Vasorelaxation result is “induce vasorelaxation”. At Nurr1, the “Transcriptional function of Nurr1” value is “stimulate the transcriptional function of Nurr1”.

Consider `COc1ccc(Cl)cc1C(=O)NCCc1ccc(S(=O)(=O)NC(=O)NC2CCCCC2)cc1` [Glibenclamide, 5-chloro-N-[2-[4-(cyclohexylcarbamoyl-sulfamoyl)phenyl]ethyl]-2-methoxybenzamide], for which the “Efficacy in collagenase intracerebral hemorrhage” value in data set [4] was “not effective”. Also, the “Brain swelling (midline shift), MMP-9, functional outcomes and mortality” value in data set [5] is “promising findings”. In addition, in data set [6], the “Reduction of cerebral edema, infarct volume and mortality” value was 50%. The “Efficacy in subarachnoid hemorrhage” value in [7] was “effective”. Further, the “Efficacy in brain ischemia and reperfusion injury” value in data set [8] was “effective”. Moreover, the “Cerebral edema, BBB disruption and neurological deficit” value in [9] is “alleviate cerebral edema, disrupted BBB, and neurological deficit”. Besides, the “Hemispheric swelling, mortality and Garcia scores” value in [10] was “significantly reduced hemispheric swelling at 24 h and 48-h mortality and improved Garcia scores at 48 h”. In data set [11], the 6-month functional outcome is “did not substantially improve 6-month functional outcome” and the Safety of treatment result is recorded as “safe”.

As to `C[C@]12CCC(=O)C=C1C=C[C@@H]1[C@@H]2CC[C@@]2(C)[C@H]1CC[C@@]2(O)CCC(=O)[O-].[K+]` [Potassium canrenoate, potassium 3-[(8R,9S,10R,13S,14S,17R)-17-hydroxy-10,13-dimethyl-3-oxo-2,8,9,11,12,14,15,16-octahydro-1H-cyclopenta[a]phenanthren-17-yl]propanoate], in [1] (Day 1, amodiaquine 0.5 mg/kg, potassium canrenoate 0.33 mg/kg, glibenclamide 1 μg/kg, exenatide 0.05 μg/kg, 20 min before reperfusion and twice a day), the “Neurological score (NSS) vs vehicle, Part II” value is “Statistically significant differences”. For the same compound, the “Brain infarct size vs vehicle, Part II” value in [12] was “Statistically significant differences in infarct size; also recorded: Less prominent decrease in infarct volume”.

Take `CCN(CC)CCCC(C)Nc1ccnc2cc(Cl)ccc12` (stereo not drawn) [chloroquine]: the “Transcriptional function of Nurr1” value on Nurr1 is given as “stimulate the transcriptional function of Nurr1”.
